Data: ChEMBL document CHEMBL1697781, “Assessment of the health effects of chemicals in humans: II. Construction of an adverse effects database for QSAR modeling” (Curr Drug Discov Technol, 2004)
Numbered stars: 1 amine (or outer) side, 2 acyl side, 3 side chain; on linkers, the order of the positions; unused ones are H or OH. Bridge positions count the residues as written; N and C are the ends. Square brackets hold non-standard residues; d marks the D form. Peptide text beside a SMILES is read from it. I, II: the chains in the order shown. Actinocin(9to1) = Cc1c2oc3c(C)ccc(C(=O)[*:1])c3nc-2c(C(=O)[*:2])c(N)c1=O; NMeV = CN[C@H](C(=O)O)C(C)C; Sar = CNCC(=O)O

Experiments:
Settings in all cases: human; call rule not given here
[1] = tested on: Hepatotoxicity; test: FDA HLAED, serum glutamic pyruvic transaminase (SGPT) increase
[2] = tested on: Hepatotoxicity; test: FDA HLAED, liver enzyme composite activity
[3] = tested on: Hepatotoxicity; test: FDA HLAED, serum glutamic oxaloacetic transaminase (SGOT) increase
[4] = tested on: Hepatotoxicity; test: FDA HLAED, alkaline phosphatase increase

Structure (SMILES): CC(=O)N[C@@H](CS)C(=O)O [ACETYLCYSTEINE]
- SGPT Increase - Activity Score [1]: Active
- SGPT Increase - Index Value [1]: 4.8
- SGPT Increase - Number of Reports [1]: >= 4
- Composite Activity - Active [2]: 1
- Composite Activity - Marginal [2]: 0

Structure (SMILES): Cc1c2oc3c(C)ccc(C(=O)N[C@@H]4C(=O)N[C@H](C(C)C)C(=O)N5CCC[C@H]5C(=O)N(C)CC(=O)N(C)[C@@H](C(C)C)C(=O)O[C@@H]4C)c3nc-2c(C(=O)N[C@@H]2C(=O)N[C@H](C(C)C)C(=O)N3CCC[C@H]3C(=O)N(C)CC(=O)N(C)[C@@H](C(C)C)C(=O)O[C@@H]2C)c(N)c1=O [DACTINOMYCIN] (I: T[dV]P[Sar][NMeV] / II: T[dV]P[Sar][NMeV]; ester I:1-I:C, II:1-II:C; linker I:N-II:N via Actinocin(9to1))
- SGPT Increase - Activity Score [1]: Active
- SGPT Increase - Index Value [1]: 23.7
- SGPT Increase - Number of Reports [1]: >= 4
- SGOT Increase - Activity Score [3]: Active
- SGOT Increase - Index Value [3]: 29.6
- SGOT Increase - Number of Reports [3]: >= 4
- Composite Activity - Active [2]: 2
- Composite Activity - Marginal [2]: 0
- Composite Activity - Score [2]: Active

Structure (SMILES): C#C[C@]1(O)CC[C@H]2[C@@H]3CCC4=Cc5oncc5C[C@]4(C)[C@H]3CC[C@@]21C [DANAZOL]
- SGPT Increase - Activity Score [1]: Active
- SGPT Increase - Index Value [1]: 10.2
- SGPT Increase - Number of Reports [1]: >= 4
- Composite Activity - Active [2]: 1
- Composite Activity - Marginal [2]: 0

Structure (SMILES): CC(O)(P(=O)(O)O)P(=O)(O)O [ETIDRONIC ACID]
- Alkaline Phosphatase Increase - Activity Score [4]: Active
- Alkaline Phosphatase Increase - Index Value [4]: 8.6
- Alkaline Phosphatase Increase - Number of Reports [4]: >= 4
- Composite Activity - Active [2]: 1
- Composite Activity - Marginal [2]: 0

Structure (SMILES): FC(F)(F)C(Cl)Br (stereo unspecified) [HALOTHANE]
- SGOT Increase - Activity Score [3]: Active
- SGOT Increase - Index Value [3]: 16.5
- SGOT Increase - Number of Reports [3]: >= 4
- Composite Activity - Active [2]: 1
- Composite Activity - Marginal [2]: 0

Structure (SMILES): CN1CCN(C2=Nc3ccccc3Oc3ccc(Cl)cc32)CC1 [LOXAPINE]
- SGPT Increase - Activity Score [1]: Active
- SGPT Increase - Index Value [1]: 9.9
- SGPT Increase - Number of Reports [1]: >= 4
- SGOT Increase - Activity Score [3]: Active
- SGOT Increase - Index Value [3]: 9.9
- SGOT Increase - Number of Reports [3]: >= 4
- Composite Activity - Active [2]: 2
- Composite Activity - Marginal [2]: 0
- Composite Activity - Score [2]: Active

Structure (SMILES): Cc1cccc(Nc2ccccc2C(=O)O)c1C [MEFENAMIC ACID]
- SGPT Increase - Activity Score [1]: Active
- SGPT Increase - Index Value [1]: 19.5
- SGPT Increase - Number of Reports [1]: < 4
- SGOT Increase - Activity Score [3]: Active
- SGOT Increase - Index Value [3]: 26
- SGOT Increase - Number of Reports [3]: >= 4
- Composite Activity - Active ([2]; Liver): 2
- Composite Activity - Marginal ([2]; Liver): 0
- Composite Activity - Score ([2]; Liver): Active

Structure (SMILES): C[C@](N)(Cc1ccc(O)c(O)c1)C(=O)O [METHYLDOPA]
- Composite Activity - Active [2]: 0
- Composite Activity - Marginal [2]: 0

Structure (SMILES): C[C@H]1C[C@@H]2[C@H]([C@@H](O)C[C@@]3(C)[C@H]2CC[C@]3(O)C(=O)COC(=O)CCCCCCC(=O)N(C)CCS(=O)(=O)O)[C@@]2(C)C=CC(=O)C=C12 [METHYLPREDNISOLONE 21-SULEPTANIC ACID ESTER]
- Composite Activity - Active [2]: 0
- Composite Activity - Marginal [2]: 0

Structure (SMILES): CCC(=O)O[C@]1(C(=O)COC(C)=O)CC[C@H]2[C@@H]3C[C@H](C)C4=CC(=O)C=C[C@]4(C)[C@H]3[C@@H](O)C[C@@]21C [METHYLPREDNISOLONE ACEPONATE]
- Composite Activity - Active [2]: 0
- Composite Activity - Marginal [2]: 0

Structure (SMILES): C[C@H]1C[C@@H]2[C@H]([C@@H](O)C[C@@]3(C)[C@H]2CC[C@]3(O)C(=O)COC(=O)CCC(=O)O)[C@@]2(C)C=CC(=O)C=C12 [METHYLPREDNISOLONE HEMISUCCINATE]
- Composite Activity - Active [2]: 0
- Composite Activity - Marginal [2]: 0

Structure (SMILES): C[C@H]1C[C@@H]2[C@H]([C@@H](O)C[C@@]3(C)[C@H]2CC[C@]3(O)C(=O)CO)[C@@]2(C)C=CC(=O)C=C12 [METHYLPREDNISOLONE]
- Composite Activity - Active [2]: 0
- Composite Activity - Marginal [2]: 0

Structure (SMILES): Cc1ncc([N+](=O)[O-])n1CCO [METRONIDAZOLE]
- Alkaline Phosphatase Increase - Activity Score [4]: Active
- Alkaline Phosphatase Increase - Index Value [4]: 6.2
- Alkaline Phosphatase Increase - Number of Reports [4]: >= 4
- Composite Activity - Active [2]: 1
- Composite Activity - Marginal [2]: 0

Structure (SMILES): CCOc1ccc2ccccc2c1C(=O)N[C@@H]1C(=O)N2[C@@H]1SC(C)(C)[C@@H]2C(=O)O [NAFCILLIN]
- Alkaline Phosphatase Increase - Activity Score [4]: Active
- Alkaline Phosphatase Increase - Index Value [4]: 10.9
- Alkaline Phosphatase Increase - Number of Reports [4]: >= 4
- Composite Activity - Active [2]: 1
- Composite Activity - Marginal [2]: 0

Structure (SMILES): CNCCC=C1c2ccccc2CCc2ccccc21 [NORTRIPTYLINE]
- SGPT Increase - Activity Score [1]: Marginally Active
- SGPT Increase - Index Value [1]: 11.6
- SGPT Increase - Number of Reports [1]: < 4
- Alkaline Phosphatase Increase - Activity Score [4]: Active
- Alkaline Phosphatase Increase - Index Value [4]: 15.4
- Alkaline Phosphatase Increase - Number of Reports [4]: >= 4
- Composite Activity - Active ([2]; Liver): 1
- Composite Activity - Marginal ([2]; Liver): 1

Structure (SMILES): CC(C)(S)[C@@H](N)C(=O)O [PENICILLAMINE]
- Composite Activity - Active [2]: 0
- Composite Activity - Marginal [2]: 0

Structure (SMILES): OCCN1CCN(CCCN2c3ccccc3Sc3ccc(Cl)cc32)CC1 [PERPHENAZINE]
- Composite Activity - Active [2]: 0
- Composite Activity - Marginal [2]: 0

Structure (SMILES): O=C1NC(=O)C(c2ccccc2)(c2ccccc2)N1 [PHENYTOIN]
- Composite Activity - Active ([2]; Liver): 0
- Composite Activity - Marginal ([2]; Liver): 0

Structure (SMILES): COc1cc2nc(N3CCN(C(=O)c4ccco4)CC3)nc(N)c2cc1OC [PRAZOSIN]
- Composite Activity - Active [2]: 0
- Composite Activity - Marginal [2]: 0

Structure (SMILES): C[C@]12C=CC(=O)C=C1CC[C@@H]1[C@@H]2C(=O)C[C@@]2(C)[C@H]1CC[C@]2(O)C(=O)CO [PREDNISONE]
- Composite Activity - Active [2]: 0
- Composite Activity - Marginal [2]: 0

Structure (SMILES): CCC1(c2ccccc2)C(=O)NCNC1=O [PRIMIDONE]
- Composite Activity - Active [2]: 0
- Composite Activity - Marginal [2]: 0

Structure (SMILES): CCCN(CCC)S(=O)(=O)c1ccc(C(=O)O)cc1 [PROBENECID]
- Composite Activity - Active [2]: 0
- Composite Activity - Marginal [2]: 0

Structure (SMILES): CNNCc1ccc(C(=O)NC(C)C)cc1 [PROCARBAZINE]
- Composite Activity - Active [2]: 0
- Composite Activity - Marginal [2]: 0

Structure (SMILES): CCCc1cc(=O)[nH]c(=S)[nH]1 [PROPYLTHIOURACIL]
- Composite Activity - Active ([2]; Liver): 0
- Composite Activity - Marginal ([2]; Liver): 0

Structure (SMILES): C=C[C@H]1C[N@@]2CC[C@H]1C[C@@H]2[C@@H](O)c1ccnc2ccc(OC)cc12 [QUINIDINE]
- Composite Activity - Active [2]: 0
- Composite Activity - Marginal [2]: 0

Structure (SMILES): CC(=O)S[C@@H]1CC2=CC(=O)CC[C@]2(C)[C@H]2CC[C@@]3(C)[C@@H](CC[C@@]34CCC(=O)O4)[C@H]12 [SPIRONOLACTONE]
- Composite Activity - Active [2]: 0
- Composite Activity - Marginal [2]: 0

Structure (SMILES): Nc1ccc(S(=O)(=O)Nc2ncccn2)cc1 [SULFADIAZINE]
- Composite Activity - Active ([2]; Liver): 0
- Composite Activity - Marginal ([2]; Liver): 0

Structure (SMILES): O=C(O)c1cc(/N=N/c2ccc(S(=O)(=O)Nc3ccccn3)cc2)ccc1O [SULFASALAZINE]
- SGPT Increase - Activity Score [1]: Active
- SGPT Increase - Index Value [1]: 4
- SGPT Increase - Number of Reports [1]: >= 4
- Composite Activity - Active [2]: 1
- Composite Activity - Marginal [2]: 0

Structure (SMILES): CN(C)[C@@H]1C(O)=C(C(N)=O)C(=O)[C@@]2(O)C(O)=C3C(=O)c4c(O)cccc4[C@@](C)(O)[C@H]3C[C@@H]12 [TETRACYCLINE]
- Composite Activity - Active [2]: 0
- Composite Activity - Marginal [2]: 0

Structure (SMILES): CSc1ccc2c(c1)N(CCC1CCCCN1C)c1ccccc1S2 (stereo unspecified) [THIORIDAZINE]
- Alkaline Phosphatase Increase - Activity Score [4]: Marginally Active
- Alkaline Phosphatase Increase - Index Value [4]: 3.2
- Alkaline Phosphatase Increase - Number of Reports [4]: >= 4
- Composite Activity - Active [2]: 0
- Composite Activity - Marginal [2]: 1

Structure (SMILES): S=P(N1CC1)(N1CC1)N1CC1 [THIOTEPA]
- Composite Activity - Active [2]: 0
- Composite Activity - Marginal [2]: 0

Structure (SMILES): NC[C@H]1O[C@H](O[C@H]2[C@H](O)[C@@H](O[C@H]3O[C@H](CO)[C@@H](O)[C@H](N)[C@H]3O)[C@H](N)C[C@@H]2N)[C@H](N)C[C@@H]1O [TOBRAMYCIN]
- Composite Activity - Active [2]: 0
- Composite Activity - Marginal [2]: 0

Structure (SMILES): N[C@@H]1C[C@H]1c1ccccc1.N[C@H]1C[C@@H]1c1ccccc1 [TRANYLCYPROMINE]
- Composite Activity - Active ([2]; Liver): 0
- Composite Activity - Marginal ([2]; Liver): 0

Structure (SMILES): CN1CCN(CCCN2c3ccccc3Sc3ccc(C(F)(F)F)cc32)CC1 [TRIFLUOPERAZINE]
- Composite Activity - Active [2]: 0
- Composite Activity - Marginal [2]: 0

Structure (SMILES): CC[C@]1(O)C[C@H]2CN(CCc3c([nH]c4ccccc34)[C@@](C(=O)OC)(c3cc4c(cc3OC)N(C=O)[C@H]3[C@@](O)(C(=O)OC)[C@H](OC(C)=O)[C@]5(CC)C=CCN6CC[C@]43[C@@H]65)C2)C1 [VINCRISTINE]
- Composite Activity - Active [2]: 0
- Composite Activity - Marginal [2]: 0
